Data as given in US8642657B2 (Gruenenthal GmbH, priority 2003, dated 2014).

Tests used:
[1] = molecular target: T1, rat VR1 (Rattus norvegicus, UniProt O35433); test: [3H]resiniferatoxin (RTX) competition binding assay, VR1-transfected CHO cells
T1 construct: expressed in transfected cells
Summary of the method: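 Competition with [3H]RTX (50-100 pM) ran 60 min at 37° C using whole VR1-induced CHO cells in BSA-containing DPBS, nonspecific defined by 100 nM cold RTX. After centrifugation, pellet radioactivity counted by scintillation; Hill fits gave Ki and cooperativity.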

[2] = molecular target: T1, rat VR1; test: 45Ca2+-uptake assay in CHO/VR1 cells, antagonism of capsaicin-stimulated uptake; assay type: cell-based; conditions: 45Ca2+ uptake stimulated by 50 nM capsaicin
[3] = competition with [3H]RTX, rat VR1 in CHO cells, read-out: Ki (nM) Binding Affinity

T1 sequence (O35433 whole entry): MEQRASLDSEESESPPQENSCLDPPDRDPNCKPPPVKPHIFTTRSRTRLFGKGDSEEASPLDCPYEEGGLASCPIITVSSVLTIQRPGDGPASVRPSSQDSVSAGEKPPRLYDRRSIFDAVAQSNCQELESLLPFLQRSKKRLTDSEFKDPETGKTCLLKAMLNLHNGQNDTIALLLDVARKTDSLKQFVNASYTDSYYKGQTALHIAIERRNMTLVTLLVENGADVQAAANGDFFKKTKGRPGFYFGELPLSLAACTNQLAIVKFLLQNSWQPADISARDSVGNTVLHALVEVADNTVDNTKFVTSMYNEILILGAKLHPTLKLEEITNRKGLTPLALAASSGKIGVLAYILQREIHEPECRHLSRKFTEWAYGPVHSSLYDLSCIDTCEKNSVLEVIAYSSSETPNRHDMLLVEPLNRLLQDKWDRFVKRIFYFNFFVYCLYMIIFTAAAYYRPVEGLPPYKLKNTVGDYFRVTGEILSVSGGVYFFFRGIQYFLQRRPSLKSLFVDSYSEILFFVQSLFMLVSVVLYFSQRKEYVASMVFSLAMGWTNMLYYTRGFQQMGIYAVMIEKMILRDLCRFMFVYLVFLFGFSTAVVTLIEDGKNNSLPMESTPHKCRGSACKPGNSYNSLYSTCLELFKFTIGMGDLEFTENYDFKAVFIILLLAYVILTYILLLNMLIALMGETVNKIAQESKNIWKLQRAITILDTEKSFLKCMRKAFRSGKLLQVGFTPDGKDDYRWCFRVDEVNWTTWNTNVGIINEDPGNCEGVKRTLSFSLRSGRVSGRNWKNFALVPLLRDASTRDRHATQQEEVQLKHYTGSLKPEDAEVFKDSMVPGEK

Row | Compound | melting point | Ki [1] | Ki [2] | Ki [1, 3]
1 | CC(C(=O)NCc1ccc(C(C)(C)C)cc1)c1ccc(NS(C)(=O)=O)c(F)c1 (stereo not drawn) [1-51, N-(4-tert-Butylbenzyl)-2-[3-fluoro-4-(methylsulfonylamino)phenyl]propionamide] | 52 to 54 °C | 58.4 nM | 5.47 nM | –
2 | Cc1ccc(CCCNC(=O)C2(c3ccc(NS(C)(=O)=O)cc3)CC2)cc1C [12-4, N-[3-(3,4-Dimethylphenyl)propyl]-1-[4-(methylsulfonylamino)phenyl]cyclopropanecarboxamide] | 127 to 128 °C | 1740 nM | 1100 nM | –
3 | CC(NC(=O)Cc1ccc(C(C)(C)C)cc1)c1ccc(NS(C)(=O)=O)c(F)c1 (stereo not drawn) [24-1, N-{1-[3-Fluoro-4-(methylsulfonylamino)phenyl]ethyl}-3-(4-tert-butylphenyl)acetamide] | 134 to 136 °C | – | 2220 nM | 2130 nM
4 | CC(C(=O)NCc1cccc2ccccc12)c1ccc(NS(C)(=O)=O)c(F)c1 (stereo not drawn) [4-12, N-(1-Naphthylmethyl)-2-[3-fluoro-4-(methylsulfonylamino)phenyl]propionamide] | 159 to 161 °C | – | 239 nM | 959 nM
5 | Cc1ccc(CC(CNC(=O)C(C)c2ccc(NS(C)(=O)=O)c(Cl)c2)COC(=O)C(C)(C)C)cc1C (stereo not drawn) [5-7, N-[2-(3,4-Dimethylbenzyl)-3-pivaloyloxypropyl]-2-[3-chloro-4-(methylsulfonylamino)phenyl]propionamide] | 127 to 129 °C | – | 35.7 nM | 11.3 nM
6 | Cc1ccc(C(=CCNC(=O)C(C)c2ccc(NS(C)(=O)=O)c(F)c2)c2ccc(C)cc2)cc1 (stereo not drawn) [4-26, N-[3,3-Di(4-methylphenyl)-2-propenyl]-2-[3-fluoro-4-(methylsulfonylamino)phenyl]propionamide] | 163 to 165 °C | 36 nM | 8.03 nM | –
7 | C[C@@H](NC(=S)NC[C@@H](COC(=O)C(C)(C)C)Cc1ccc(C(C)(C)C)cc1)c1ccc(NS(C)(=O)=O)cc1 [18-12, N-[(2S)-2-(4-tert-Butylbenzyl)-3-(pivaloyloxy)propyl]-N′-{(1R)-1-[4-(methylsulfonylamino)phenyl]ethyl}thiourea] | 88 to 90 °C | 8.09 nM | 30.6 nM | –
8 | Cc1ccc(CC(CNC(=S)NC(C)c2ccc(NS(C)(=O)=O)c(F)c2)COC(=O)C(C)(C)C)cc1C (stereo not drawn) [18-13, N-[2-(3,4-Dimethylbenzyl)-3-(pivaloyloxy)propyl]-N′-{1-[3-fluoro-4-(methylsulfonylamino)phenyl]ethyl}thiourea] | 73 °C | 37 nM | 7.09 nM | –
9 | CCC(NC(=S)NCc1ccc(C(C)(C)C)cc1)c1ccc(NS(C)(=O)=O)c(F)c1 (stereo not drawn) [20-12, N-(4-t-Butylbenzyl)-N′-{1-[4-(methylsulfonylamino)-3-fluorophenyl]propyl}thiourea] | 85 °C | – | 54.3 nM | 230 nM
10 | C[C@H](NC(=S)NC[C@@H](COC(=O)C(C)(C)C)Cc1ccccc1)c1ccc(NS(C)(=O)=O)cc1 [18-4, N-[(2S)-2-Benzyl-3-(pivaloyloxy)propyl]-N′-{(1S)-1-[4-(methylsulfonylamino)phenyl]ethyl}thiourea] | 62 to 64 °C | 706 nM | 133 nM | –
11 | COc1cc(C2(C(=O)NCc3ccc(C(C)(C)C)cc3)CC2)ccc1NS(C)(=O)=O [12-9, N-(4-tert-Butylbenzyl)-1-[3-methoxy-4-(methylsulfonylamino)phenyl]cyclopropanecarboxamide] | 200 to 203 °C | – | 2250 nM | 745 nM
12 | C[C@@H](NC(=S)NC[C@H](COC(=O)C(C)(C)C)Cc1ccccc1)c1ccc(NS(C)(=O)=O)cc1 [18-1, N-[(2R)-2-Benzyl-3-(pivaloyloxy)propyl]-N′-{(1R)-1-[4-(methylsulfonylamino)phenyl]ethyl}thiourea] | 62 to 64 °C | 22.7 nM | 44.5 nM | –
